According to patent US6387881B1, “Inhibitors and substrates of thrombin” (priority 1992, dated 2002):
Values joined by “and” are separate entries in the source; they are usually repeats but may differ in a detail not shown here. Equal entries are not always repeated. Where two headings read alike, the source gives them in different places.

Assays:
human α-thrombin = human α-thrombin (Homo sapiens, UniProt P00734); test: biochemical; assay type: biochemical
Protocol: The inhibition of human α-thrombin was determined by the inhibition of the enzyme catalyzed hydrolysis of three different concentrations of the chromogenic substrate S-2238.
200 μl of sample or buffer and 50 μl of S-2238 were incubated at 37° C. for 1 min and 50 μl of human α-thrombin (0.25 NIHu/ml) was added. The initial rate of inhibited and uninhibited reactions were recorded at 405 nm. The increase in optical density was plotted according to the method of Lineweaver and Burke. The Km and apparent Km were determined and Ki was calculated using the relationship: [formula]

[1] = IC50 with and without incubation (enzyme not given); assay type: biochemical
Xa = target: T1, Xa (Homo sapiens, UniProt P00742); test: IC50 against Xa; assay type: biochemical
T1 construct: Plasmin; Xa; Urokinase

Kalhikrein = test: IC50 against kallikrein; assay type: biochemical
Urokinase = Urokinase (Homo sapiens, UniProt P00749); test: IC50 against urokinase; assay type: biochemical
Plasmin = Plasmin (Homo sapiens, UniProt P00747); test: IC50 against plasmin; assay type: biochemical
[2] = tested on: bovine thrombin in plasma samples; test: Ex-vivo TT; assay type: in vivo, New Zealand white rabbits; set-up: key: thrombin (coagulation) time in seconds; settings: 1 mg/kg i.v. bolus, rabbit
Protocol: A volume of 150 μl of citrated normal human plasma and 20 μl of buffer or sample were warmed at 37° C. for 1 min. Coagulation was started by adding 150 ul of freshly prepared bovine thrombin (5 NIHu/ml saline) and the coagulation time was recorded on a coagulometer.
A phosphate buffer, pH 7.8, containing 0.1% bovine serum albumine and 0.02% sodium azide was used. The samples were dissolved in DMSO and diluted with the buffer. When no inhibitor was used DMSO was added to the buffer to the same concentration as that used in the samples. The inhibitor concentrations were plotted against the thrombin times in a semilogarithmic graph from which the inhibitor concentration that caused a doubling (40 sec) of the thrombin time was determined.
(§1) Data was obtained as for in-vitro tests, but using plasma samples obtained at 0, 1, 10, 30 and 60 minutes after dosing of 1 mg/kg, i.v. bolus injection in a marginal ear vein in New Zealand white rabbits, which were anaesthetized from a canula in the carotid artery. [drawing 18]

plasma samples = test: Ex-vivo APTT; assay type: in vivo, New Zealand white rabbits; set-up: unit not given here; settings: 1 mg/kg i.v. bolus, rabbit
Protocol: A volume of 150 μl of citrated (3.2%) normal human plasma was incubated at 37° C. with sample (20 μl) or buffer (20 μl, control) for 1 min. To the solution was added reconstituted “AUTOMATED APTT” (available from Organon Teknika, 0.1 ml). Each solution was activated at 37° C. for 5 min.
After activation, calcium chloride (0.1 ml, 0.025M, prewarmed at 37° C.) was added and clot detection was timed using a “semiautomated coagulometer” (Nach, Schnicter und Gross).
as §1

[3] = tested on: 111indium-labelled platelets; test: Deposition of 111indium-labelled platelets after intravenous dose; assay type: in vivo, New Zealand white rabbits
From the text: M. Hero, K. D. Butler, C. […] Peripheral blood pressure was monitored by a pressure sensor in the carotid artery.

[4] = Peripheral blood pressure after intravenous dose; assay type: in vivo, New Zealand white rabbits
From the text: […] R. May, C. M. Hero, K. D. Butler, C. P. Page, JOURNAL OF PHARMACOLOGICAL METHODS, 24, pp 1-35, 1990. Peripheral blood pressure was monitored by a pressure sensor in the carotid artery.

[5] = no incubation, read-out: IC50 No Incubations
[6] = with incubation, read-out: IC50 Inc.
[7] = single value given, incubation not given, read-out: Xa no inc/inc
[8] = single value given, incubation not given, read-out: Kalhikrein no inc/inc
[9] = single value given, incubation not given, read-out: Urokinase no inc/inc
[10] = single value given, incubation not given, read-out: Plasmin no inc/inc
[11] = human α-thrombin, S-2238, 37° C., read-out: Ki

T1 sequence (P00742 41-179 limits assumed): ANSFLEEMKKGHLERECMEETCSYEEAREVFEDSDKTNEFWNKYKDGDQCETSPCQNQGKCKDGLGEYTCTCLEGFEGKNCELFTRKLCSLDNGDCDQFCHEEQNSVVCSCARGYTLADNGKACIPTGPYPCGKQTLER
T1 sequence (P00742 235-488 limits assumed): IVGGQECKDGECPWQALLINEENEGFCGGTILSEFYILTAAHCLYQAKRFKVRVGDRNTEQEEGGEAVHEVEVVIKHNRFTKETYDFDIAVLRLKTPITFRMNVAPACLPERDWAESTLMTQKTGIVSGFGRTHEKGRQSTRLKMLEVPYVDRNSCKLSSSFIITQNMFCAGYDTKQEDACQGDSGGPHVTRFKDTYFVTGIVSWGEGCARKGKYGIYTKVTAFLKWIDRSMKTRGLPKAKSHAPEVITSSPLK
Sequence of Plasmin (P00747 97-580 limits assumed, species assumed): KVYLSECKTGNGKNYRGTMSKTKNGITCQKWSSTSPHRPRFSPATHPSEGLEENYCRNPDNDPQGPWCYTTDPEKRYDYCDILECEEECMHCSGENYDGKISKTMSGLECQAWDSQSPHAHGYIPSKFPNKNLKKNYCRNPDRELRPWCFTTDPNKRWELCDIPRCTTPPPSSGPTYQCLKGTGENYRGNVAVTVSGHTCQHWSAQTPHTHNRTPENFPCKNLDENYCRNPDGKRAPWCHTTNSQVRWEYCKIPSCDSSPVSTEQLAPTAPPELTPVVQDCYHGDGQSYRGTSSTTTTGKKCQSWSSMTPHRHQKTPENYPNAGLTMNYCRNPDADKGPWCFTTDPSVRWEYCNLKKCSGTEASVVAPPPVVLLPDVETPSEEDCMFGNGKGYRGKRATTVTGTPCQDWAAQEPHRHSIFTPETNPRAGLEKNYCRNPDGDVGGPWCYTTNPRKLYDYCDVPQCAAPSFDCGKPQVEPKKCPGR
Sequence of Plasmin (P00747 581-810 limits assumed, species assumed): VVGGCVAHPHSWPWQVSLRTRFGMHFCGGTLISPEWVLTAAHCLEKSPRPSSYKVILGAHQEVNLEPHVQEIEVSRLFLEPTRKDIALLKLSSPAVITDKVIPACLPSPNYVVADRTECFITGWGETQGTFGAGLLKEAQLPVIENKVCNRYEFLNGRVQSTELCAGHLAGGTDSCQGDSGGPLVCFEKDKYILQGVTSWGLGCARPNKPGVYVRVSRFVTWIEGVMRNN

Compound | IC50 [1, 5] [nM] | IC50 [1, 6] [nM] | IC50 (Xa; [7]) [nM] | IC50 (Kalhikrein; [8]) [nM] | IC50 (Urokinase; [9]) [nM] | IC50 (Plasmin; [10]) [nM] | Ki (human α-thrombin; [11]) [nM] | also measured
CCCCCC(NC(=O)[C@@H]1CCCN1C(=O)[C@H](N)Cc1ccccc1)P(=O)(O)O (stereo partly drawn) [Compound 21, D-Phe-Pro-Pgl^P(OH)2] | > 137000 | 4350 |  |  |  |  |  | Ki (human α-thrombin; read-out: Ki): > 98000 nM
CCCCCC(NC(=O)C1CCCN1C(=O)C(Cc1ccccc1)NC(=O)OCc1ccccc1)P(=O)(Oc1ccccc1)Oc1ccccc1 [Compound 19, Z-D-Phe-Pro-Pgl^P(OPh)2] |  |  |  |  |  |  |  | Ki (human α-thrombin): > 31000 nM
Bzl-Pros-Pro-BoroIrg-Opin [Compound 44] | 1300 |  | 512 | 1080 | 121 | 153 |  | 
COCCCC(NC(=O)C1CCCN1C(=O)C(Cc1ccccc1)NC(=O)OCc1ccccc1)B1OC2CC3CC(C3(C)C)C2(C)O1 [Compound 50, Z-D-Phe-Pro-BoroMpg-OPin] | 0.7 |  | 1720 | 7260 | 3630 | 3230 |  | 
CC(C)(C)OC(=O)NC(C(=O)N1CCCC1C(=O)NC(c1ccccc1)P(=O)(O)O)C(c1ccccc1)c1ccccc1 [Compound 15, Boc-D,L-Dpa-Pro-Pgl^P(OH)2] | 5280 | 83.6 |  |  |  |  | 59000 | 
CCCCCC(NC(=O)[C@@H]1CCCN1C(=O)[C@@H](Cc1ccccc1)NC(=O)OCc1ccccc1)B1OC(C)(C)C(C)(C)O1 (stereo partly drawn) [Compound 11, Z-D-Phe-Pro-BoroPgl-OPinac] |  |  |  |  |  |  |  | EX-VIVO T.T. ([2]; time 0 min): 30 and 24.5 and 26; EX-VIVO T.T. ([2]; time 1 min): >300 and >200; EX-VIVO T.T. ([2]; time 10 min): >300 and >200; EX-VIVO A.P.T.T. (plasma samples; time 0 min): 46.5 and 26.4; EX-VIVO A.P.T.T. (plasma samples; time 60 min): 53.0 and 38.4
COCCCC(NC(=O)[C@@H]1CCCN1C(=O)[C@H](N)Cc1ccccc1)P(=O)(Oc1ccccc1)Oc1ccccc1 (stereo partly drawn) [Compound 40, H-D-Phe-Pro-Mpg^P(OPh)2] | 16600 | 11.8 |  |  |  |  |  | IC50 (Xa; no incubation (first value of cell), read-out: Xa no inc): > 20900 nM; IC50 (Xa; with incubation (second value of cell), read-out: Xa inc): > 20900 nM; IC50 (Kalhikrein; no incubation (first value of cell), read-out: Kalhikrein no inc): > 20900 nM; IC50 (Kalhikrein; with incubation (second value of cell), read-out: Kalhikrein inc): > 20900 nM; IC50 (Urokinase; no incubation (first value of cell), read-out: Urokinase no inc): > 20900 nM; IC50 (Urokinase; with incubation (second value of cell), read-out: Urokinase inc): > 20900 nM; Ki (human α-thrombin; read-out: Ki): 18.8 nM; IC50 (Plasmin; no incubation (first value of cell), read-out: Plasmin no inc): > 20900 nM
CCCCCC(NC(=O)C1CCCN1C(=O)C(N)Cc1ccccc1)P(=O)(Oc1ccccc1)Oc1ccccc1 [Compound 20, D-Phe-Pro-Pgl^P(OPh)2] |  |  |  |  |  |  |  | Ki (human α-thrombin): 109 nM; PLATELET ACCUMULATION (% OF NORMAL) LEG ([3]; 1 mg/kg i.v. dose): NONE; PLATELET ACCUMULATION (% OF NORMAL) LUNG ([3]; 1 mg/kg i.v. dose): NONE; BLOOD PRESSURE Δ% of NORM ([4]; 1 mg/kg i.v. dose): NONE
CCCCCC(NC(=O)[C@@H]1CCCN1C(=O)[C@H](N)C(c1ccccc1)c1ccccc1)P(=O)(O)O (stereo partly drawn) [Compound 18, D-Dpa-Pro-Pgl^P(OH)2] | 148000 | 751 |  |  |  |  | 15100 | 
O=C(NC(C(=O)N1CCCC1C(=O)NC(c1ccccc1)P(=O)(Oc1ccccc1)Oc1ccccc1)C(c1ccccc1)c1ccccc1)OCc1ccccc1 [Compound 17, Z-D-Dpa-Pro-Pgl^P(OPh)2] |  |  |  |  |  |  | 8460 | 
CC1(C)OB(C(Cc2ccccc2)NC(=O)C2CCCN2C(=O)C(Cc2ccccc2)NC(=O)OCc2ccccc2)OC1(C)C [Compound 41, Z-D-Phe-Pro-BoroPhe-OPinac] | 12.8 |  | 7940 | 16700 | 6670 | 37300 |  | PLATELET ACCUMULATION (% OF NORMAL) LEG ([3]; 4 mg/kg iv. dose): NONE; PLATELET ACCUMULATION (% OF NORMAL) LUNG ([3]; 4 mg/kg iv. dose): NONE; BLOOD PRESSURE Δ% of NORM ([4]; 4 mg/kg iv. dose): 21% Δ% of NORM
CCC(C)CC(NC(=O)[C@@H]1CCCN1C(=O)[C@@H](Cc1ccccc1)NC(=O)OCc1ccccc1)B1OC2CC3CC(C3(C)C)C2(C)O1 (stereo partly drawn) [Compound 22, Z-D-Phe-Pro-BoroMbg-OPin] | 7 |  | 3860 | 12900 | 9130 | 11500 |  | PLATELET ACCUMULATION (% OF NORMAL) LEG ([3]; 4 mg/kg iv. dose): 11%, TRANSIENT % OF NORMAL; PLATELET ACCUMULATION (% OF NORMAL) LUNG ([3]; 4 mg/kg iv. dose): NONE; BLOOD PRESSURE Δ% of NORM ([4]; 4 mg/kg iv. dose): 0 Δ% of NORM
Z-D-Phe-Pro-BoroMbg-OPin [Compound 59] |  |  |  |  |  |  |  | EX-VIVO T.T. ([2]; time 0 min): 28.9 and 22.5 and 22.4 and 23.5; EX-VIVO T.T. ([2]; time 1 min): 111 and 106 and 171.5 and 168.5; EX-VIVO T.T. ([2]; time 10 min): 35.9 and 34 and 37.9 and 38.4; EX-VIVO T.T. ([2]; time 30 min): 29 and 30 and 32 and 31; EX-VIVO T.T. ([2]; time 60 min): 28.4 and 28.5 and 27.9 and 28; EX-VIVO A.P.T.T. (plasma samples; time 0 min): 42 and 59.5 and 43.9 and 58; EX-VIVO A.P.T.T. (plasma samples; time 1 min): 111.4 and 111 and 102.9 and 126; EX-VIVO A.P.T.T. (plasma samples; time 10 min): 48.9 and 53 and 60.5 and 67; EX-VIVO A.P.T.T. (plasma samples; time 30 min): 34.9 and 49 and 59 and 53.9; EX-VIVO A.P.T.T. (plasma samples; time 60 min): 40.4 and 48.4 and 65.5 and 62; PLATELET ACCUMULATION (% OF NORMAL) LEG ([3]; 1 mg/kg i.v. dose): NONE; PLATELET ACCUMULATION (% OF NORMAL) LUNG ([3]; 1 mg/kg i.v. dose): NONE; BLOOD PRESSURE Δ% of NORM ([4]; 1 mg/kg i.v. dose): NONE
CC1(C)C2CC3OB(C(CCCSC(=N)N)NC(=O)C4CCCN4C(=O)C(Cc4ccccc4)NC(=O)OCc4ccccc4)OC3(C)C1C2 [Compound 25, Z-D-Phe-Pro-BoroIrg-OPin] | 1500 | 68 | 14.1 | 334 | 75 | 8.4 |  | BLOOD PRESSURE Δ% of NORM ([4]; 1 mg/kg i.v. dose): SMALL; BLOOD PRESSURE Δ% of NORM ([4]; 4 mg/kg iv. dose): 100% Δ% of NORM
NC(C(=O)N1CCCC1C(=O)NC(c1ccccc1)P(=O)(O)O)C(c1ccccc1)c1ccccc1 [Compound 16, D,L-Dpa-Pro-Pgl^P(OH)2] | 5160 | 81.7 |  |  |  |  | 223 | 
CCCCCC(NC(=O)[C@@H]1CCCN1C(=O)[C@H](N)C(c1ccccc1)c1ccccc1)P(=O)(Oc1ccccc1)Oc1ccccc1 (stereo partly drawn) [Compound 23, D-Dpa-Pro-Pgl^P(OPh)2] | 187 | 0.938 |  |  |  |  | 480 | 
